Laboratory results reported in patent US20100022541A1, “Chemical inhibitors of bacterial heptose synthesis, methods for their preparation and biological applications of said inhibitors” (priority 2006, published 2010).

What follows are molecules tested against T1, RfaE (Escherichia coli, UniProt P76658) (assay: Inhibition of the enzymatic activity of RfaE (HTS luminescent or fluorescent biochemical assay)). Conditions: inhibitor tested at 6 to 10 concentrations; 30 min pre-incubation at room temperature.
T1 construct: made in house; host or cells: E. coli
T1 sequence (P76658 whole entry): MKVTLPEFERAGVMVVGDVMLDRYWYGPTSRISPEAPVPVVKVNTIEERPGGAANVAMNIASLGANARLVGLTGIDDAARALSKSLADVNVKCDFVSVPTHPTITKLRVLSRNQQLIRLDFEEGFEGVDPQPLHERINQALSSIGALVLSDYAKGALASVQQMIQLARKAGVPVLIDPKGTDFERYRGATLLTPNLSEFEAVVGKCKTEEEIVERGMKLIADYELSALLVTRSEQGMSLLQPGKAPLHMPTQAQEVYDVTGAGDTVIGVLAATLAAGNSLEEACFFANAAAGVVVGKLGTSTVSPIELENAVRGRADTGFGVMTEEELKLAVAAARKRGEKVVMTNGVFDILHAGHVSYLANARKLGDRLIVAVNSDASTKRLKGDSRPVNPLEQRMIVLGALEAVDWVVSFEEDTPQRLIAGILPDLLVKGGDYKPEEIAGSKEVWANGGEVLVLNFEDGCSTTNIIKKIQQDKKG
Parameters: species or system E. coli
Experimental: According to another object, the invention also relates to a method for assessing RfaE enzymatic activity. • Said method comprises • pre-incubating at room temperature • DMSO or inhibitor to be tested dissolved in DMSO and RfaE in an assay buffer • and either • adding a reaction mixture composed of RfaE, β-heptose-7-phosphate, ATP, in the assay buffer and incubating at room temperature • adding a revelation mixture composed of luciferase, D-luciferin and N-acetylcysteamine • measuring the luminescence intensity and converting into inhibition % to further calculate the IC50 values; • or • adding a reaction mixture composed of RfaE, β-heptose-7-phosphate ATP, pyruvate kinase, phosphoenolpyruvate, lactate dehydrogenase and NADH in said assay buffer, • measuring the fluorescence intensity of NADH kinetically and deriving inhibition % from fitted initial velocities, to further calculate the IC50 values.
Inhibition of the Enzymatic Activity of RfaE
RfaE is a kinase belonging to the ribokinase family. It catalyses an essential step of the biosynthesis of L-ADP-Heptose, namely the phosphorylation of β-heptose-7-phosphate (H7P) into β-heptose-1,7-bisphosphate (H17P). RfaE assays as described in the literature are essentially based on direct HLPC detection of the substrates H7P and ATP, and of the products H17P and ADP, raising obvious limitations for HTS applications. The assays described below are based either on luminescent ATP detection, or on fluorescent ADP detection. They are easily amenable to miniaturized formats and fast readouts as required by HTS.
The assay buffer “AB” contains 50 mM Hepes pH7.5, 1 mM MnCl2, 25 mM KCl, 0.012% Triton-X100 and 1 mM DTT. The following components are added in a white polystyrene Costar plate up to a final volume of 31 μL: 3 μL DMSO, or inhibitor dissolved in DMSO and 28 μL RfaE in AB. After 30 min of pre-incubation at room temperature, 29 μL of Substrates mix in AB are added in each well to a final volume of 60 μL. This reaction mixture is then composed of 3 nM RfaE (produced in house from E. coli), 0.2 μM β-heptose-7-phosphate (in house synthesis) and 0.2 μM ATP (Sigma) in assay buffer. After 40 min of incubation at room temperature, 200 μL of the revelation mix are added to a final volume of 260 μL, including the following constituents at the respective final concentrations: 2 nM luciferase (Sigma), 30 μM D-luciferin (Sigma), 100 μM N-acetylcysteamine (Aldrich). Luminescence intensity is immediately measured on an Analyst-HT (Molecular Devices) and converted into inhibition percentages. For IC50 determinations, the inhibitor is tested at 6 to 10 different concentrations, and the related inhibitions are fitted to a classical langmuir equilibrium model using XLFIT (IDBS).
The assay buffer “AB” contains 50 mM Hepes pH7.5, 1 mM MnCl2, 25 mM KCl, 0.012% Triton-X100 and 1 mM DTT. The following components are added in a black polystyrene Costar plate up to a final volume of 50 μL: 5 μL DMSO, or inhibitor dissolved in DMSO and 45 μL RfaE in AB. After 30 min of pre-incubation at room temperature, 50 μL of Substrates-revelation mix in AB are added in each well to a final volume of 100 μL. This reaction mixture is then composed of 66 μM RfaE (produced in house from E. coli), 1 μM β-heptose-7-phosphate (in house synthesis), 50 μM ATP (Sigma), 5 u/mL Pyruvate Kinase (Sigma), 50 μM phosphoenolpyruvate (Sigma), 5 u/mL Lactate dehydrogenase (Sigma) and 2.5 μM NADH (Sigma) in assay buffer. Fluorescence intensity of NADH (λex=360 nm, λem=520 nm) is immediately measured kinetically by a Fluostar Optima (BMG). Inhibition percentages are derived from fitted initial velocities. For IC50 determinations, the inhibitor is tested at 6 to 10 different concentrations, and the related inhibitions are fitted to a classical langmuir equilibrium model using XLFIT (IDBS).
In the case of `Cc1oc(-c2cccc(NC(=O)C3CC3)c2)nc1C(=O)N(CC(=O)O)Cc1ccccn1` [XXVIII, {[(2-{3-[(cyclopropylcarbonyl)amino]phenyl}-5-methyl-1,3-oxazol-4-yl)carbonyl](pyridin-2-ylmethyl)amino}acetic Acid], the IC50 is reported as 14 µM. `COc1cccc(-c2nc(C)c(C(=O)N(CC(=O)O)Cc3nc4cc(OC)ccc4s3)o2)c1` [XXX, ((5-methoxy-1,3-benzothiazol-2-ylmethyl){[2-(3-methoxyphenyl)-4-methyl-1,3-oxazol-5-yl]carbonyl}amino)acetic Acid] was tested, and the IC50 was 1.09 µM. In the case of `Cc1oc(-c2ccccc2)nc1C(=O)N(CC(=O)O)Nc1ccccn1` [XXXI, {1-[(5-methyl-2-phenyl-1,3-oxazol-4-yl)carbonyl]-2-pyridin-2-ylhydrazino}acetic Acid], the IC50 is reported as 65 µM. In the case of `Cc1nc(-c2ccccc2)oc1C(=O)N(CC(=O)O)Cc1ccc(-c2ccccc2F)o1` [XXXII, ([(4-methyl-2-phenyl-1,3-oxazol-5-yl)carbonyl]{[5-(2-fluorophenyl)-2-furyl]methyl}amino)acetic Acid], the IC50 is reported as 125 µM. With `Cc1oc(-c2ccccc2)nc1C(=O)N(CC(=O)O)Cc1nccs1` [XXXIII, [[(5-methyl-2-phenyl-1,3-oxazol-4-yl)carbonyl](1,3-thiazol-2-ylmethyl)amino]acetic Acid] the IC50 was 110 µM. Molecule `COc1cccc(-c2nc(C(=O)N(CC(=O)O)Cc3ccc4ccccc4n3)c(C)o2)c1` [XXXIV, [{[2-(3-methoxyphenyl)-5-methyl-1,3-oxazol-4-yl]carbonyl}(quinolin-2-ylmethyl)amino]acetic Acid] has an IC50 of 12 µM. `Cc1nc(-c2cccc([N+](=O)[O-])c2)sc1C(=O)N(CC(=O)O)Cc1nc2ccccc2s1` [XXXIX, ((1,3-benzothiazol-2-ylmethyl){[4-methyl-2-(3-nitrophenyl)-1,3-thiazol-5-yl]carbonyl}amino)acetic Acid] gave an IC50 of 0.5 µM. For `COc1cccc(-c2nc(C)c(C(=O)N(CC(=O)O)C(C)c3ccccn3)o2)c1` (stereo not drawn) [XXXV, [{[2-(3-methoxyphenyl)-4-methyl-1,3-oxazol-5-yl]carbonyl}(1-pyridin-2-ylethyl)amino]acetic Acid], the IC50 was 19.2 µM. Work on `CC(=O)c1cccc(-c2nc(C)c(C(=O)N(CC(=O)O)Cc3ccccn3)s2)c1` [XXXVI, [{[2-(3-acetylphenyl)-4-methyl-1,3-thiazol-5-yl]carbonyl}(pyridin-2-ylmethyl)amino]acetic Acid] yielded an IC50 of 216 µM. `Cc1nc(-c2ccc(N)c([N+](=O)[O-])c2)sc1C(=O)N(CC(=O)O)Cc1ccccn1` [XXXVII, [{[2-(4-amino-3-nitrophenyl)-4-methyl-1,3-thiazol-5-yl]carbonyl}(pyridin-2-ylmethyl)amino]acetic Acid] was tested, and the IC50 was 12.9 µM. `Cc1nc(-c2ccc3[nH]ccc3c2)sc1C(=O)N(CC(=O)O)Cc1nc2ccccc2s1` [XXXVIII, ((1,3-benzothiazol-2-ylmethyl){[2-(1H-indol-5-yl)-4-methyl-1,3-thiazol-5-yl]carbonyl}amino)acetic Acid] showed an IC50 of 0.33 µM. For “[{[2-(4-bromophenyl)-5-methyl-1,3-oxazol-4-yl]carbonyl}(pyridin-2-ylmethyl)amino]acetic Acid [XVII]”, the IC50 was 27 µM.
